The subject of the experiment is 282377-053-R-J1-PDC complex spheroid viability. As to the kind of experiment: Anticancer human tumor 282377-053-R-J1-PDC patient-derived colon adenocarcinoma cell line growth inhibition [RAS]. The note with it: for viability, T/C: stronger effect = lower value. The method, boiled down: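 Multi-cell-type spheroids: tumor cells plus HUVEC endothelial cells and mesenchymal stem cells. RAS-pathway inhibitors were combined with targeted agents, each dosed in half-log steps down from clinical Cmax, or from 10 microM when Cmax was unknown.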

“And” between values parts separate entries of the source, which are not always exact repeats. Identical values can stand only once.
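Also: spheroids exposed to agents for seven days before readout.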
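For viability, T/C in this document: luminescence viability as percent of DMSO vehicle control wells.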

`CCc1c2c(nc3ccc(O)cc13)-c1cc3c(c(=O)n1C2)COC(=O)[C@]3(O)CC` + CCn1c(-c2cccnc2C(C)OC)c2c3cc(ccc31)N1CCOC(CC(NC(=O)C(C(C)C)N(C)C(=O)C3(F)CCN(C(=O)C#CC(C)(C)N(C)C)CC3)C(=O)N3CCCC(N3)C(=O)OCC(C)(C)C2)C1: the 50% inhibitory concentration (IC50) is above 300 nM (curve of first compound, second compound 0.000949 µM); above 300 nM (curve of first compound, second compound 0.003 µM); above 300 nM (curve of first compound, second compound 0.00949 µM); above 300 nM (curve of first compound, second compound 0.03 µM); above 300 nM (curve of first compound, second compound 0.0949 µM); 182 nM (curve of first compound, second compound 0.3 µM). Also, the viability, T/C runs as follows: (second compound 0.000949 µM, first compound 0.000949 µM) 133%; (second compound 0.000949 µM, first compound 0.003 µM) 105%; (second compound 0.000949 µM, first compound 0.00949 µM) 161%; (second compound 0.000949 µM, first compound 0.03 µM) 108%; (second compound 0.000949 µM, first compound 0.0949 µM) 95.5%; (second compound 0.000949 µM, first compound 0.3 µM) 90.6%. The viability, T/C is, setting by setting: (second compound 0.003 µM, first compound 0.000949 µM) 111%; (second compound 0.003 µM, first compound 0.003 µM) 125%; (second compound 0.003 µM, first compound 0.00949 µM) 131%; (second compound 0.003 µM, first compound 0.03 µM) 99.1%; (second compound 0.003 µM, first compound 0.0949 µM) 122%; (second compound 0.003 µM, first compound 0.3 µM) 98.8%. Besides, the viability, T/C (second compound 0.00949 µM, first compound 0.000949 µM) was 129%; the viability, T/C (second compound 0.00949 µM, first compound 0.003 µM) was 110%; the viability, T/C (second compound 0.00949 µM, first compound 0.00949 µM) is 142%; the viability, T/C (second compound 0.00949 µM, first compound 0.03 µM) was 115%; the viability, T/C (second compound 0.00949 µM, first compound 0.0949 µM) was 98%; the viability, T/C (second compound 0.00949 µM, first compound 0.3 µM) is 85.1%. Further, the viability, T/C reads like this: (second compound 0.03 µM, first compound 0.000949 µM) 95%; (second compound 0.03 µM, first compound 0.003 µM) 115%; (second compound 0.03 µM, first compound 0.00949 µM) 146%; (second compound 0.03 µM, first compound 0.03 µM) 139%; (second compound 0.03 µM, first compound 0.0949 µM) 110%; (second compound 0.03 µM, first compound 0.3 µM) 94.4%. The viability, T/C is, setting by setting: (second compound 0.0949 µM, first compound 0.000949 µM) 119%; (second compound 0.0949 µM, first compound 0.003 µM) 143%; (second compound 0.0949 µM, first compound 0.00949 µM) 163%; (second compound 0.0949 µM, first compound 0.03 µM) 136%; (second compound 0.0949 µM, first compound 0.0949 µM) 110%; (second compound 0.0949 µM, first compound 0.3 µM) 82.4%. Besides, the viability, T/C is, setting by setting: (second compound 0.3 µM, first compound 0.000949 µM) 96.7%; (second compound 0.3 µM, first compound 0.003 µM) 135%; (second compound 0.3 µM, first compound 0.00949 µM) 149%; (second compound 0.3 µM, first compound 0.03 µM) 117%; (second compound 0.3 µM, first compound 0.0949 µM) 69.8%; (second compound 0.3 µM, first compound 0.3 µM) 35%.
For `NC1c2ccccc2OC12CCN(c1cnc3c(N4CCCc5ncccc54)n[nH]c3n1)CC2` (configuration not stated), the viability, T/C is, setting by setting: (compound 0.0316 µM) 98.1% [middle of 4 runs]; (compound 0.1 µM) 98.2% [middle of 4 runs]; (compound 0.316 µM) 101% [middle of 4 runs]; (compound 1 µM) 109% (2×) and 96.3% and 103%; (compound 3.16 µM) 97.5% [middle of 4 runs]; (compound 10 µM) 89.8% [middle of 4 runs]. The 50% inhibitory concentration (IC50) (curve of compound) is above 10000 nM.
`CC(C)n1nc(-c2ccc3oc(N)nc3c2)c2c(N)ncnc21`: the viability, T/C is 91.6% [middle of 4 runs] (compound 0.000316 µM); 112% and 102% (2×) and 89.9% (compound 0.001 µM); 90.7% [middle of 4 runs] (compound 0.00316 µM); 87.2% [middle of 4 runs] (compound 0.01 µM); 74.9% [middle of 4 runs] (compound 0.0316 µM); 51.8% [middle of 4 runs] (compound 0.1 µM). Moreover, the concentration for half-maximal inhibition (IC50) (curve of compound) was above 100 nM.
Consider `C=CC(=O)Nc1cc(Nc2nccc(-c3cn(C)c4ccccc34)n2)c(OC)cc1N(C)CCN(C)C`, for which the viability, T/C runs as follows: (compound 0.01 µM) 98.4% [middle of 4 runs]; (compound 0.0316 µM) 91.6% [middle of 4 runs]; (compound 1 µM) 99.8% [middle of 4 runs]. Under “curve of compound”, the IC50 is above 1000 nM.
For `CCN1CCN(Cc2ccc(Nc3ncc(F)c(-c4cc(F)c5nc(C)n(C(C)C)c5c4)n3)nc2)CC1` + C=CC(=O)N1CCN(c2nc(OCC3CCCN3C)nc3c(F)c(-c4nc(N)cc(C)c4C(F)(F)F)c(Cl)cc23)C(C)C1, the 50% inhibitory concentration (IC50) reads like this: (curve of first compound, second compound 0.00316 µM) above 1000 nM; (curve of first compound, second compound 0.01 µM) above 1000 nM; (curve of first compound, second compound 0.0316 µM) above 1000 nM; (curve of first compound, second compound 0.1 µM) above 1000 nM; (curve of first compound, second compound 0.316 µM) above 1000 nM; (curve of first compound, second compound 1 µM) above 1000 nM. The viability, T/C is 114% (second compound 0.00316 µM, first compound 0.00316 µM); 106% (second compound 0.00316 µM, first compound 0.01 µM); 102% (second compound 0.00316 µM, first compound 0.0316 µM); 125% (second compound 0.00316 µM, first compound 0.1 µM); 131% (second compound 0.00316 µM, first compound 0.316 µM); 134% (second compound 0.00316 µM, first compound 1 µM). In addition, the viability, T/C was 104% (second compound 0.01 µM, first compound 0.00316 µM); 106% (second compound 0.01 µM, first compound 0.01 µM); 91.4% (second compound 0.01 µM, first compound 0.0316 µM); 112% (second compound 0.01 µM, first compound 0.1 µM); 146% (second compound 0.01 µM, first compound 0.316 µM); 131% (second compound 0.01 µM, first compound 1 µM). The viability, T/C runs as follows: (second compound 0.0316 µM, first compound 0.00316 µM) 117%; (second compound 0.0316 µM, first compound 0.01 µM) 87.1%; (second compound 0.0316 µM, first compound 0.0316 µM) 100%; (second compound 0.0316 µM, first compound 0.1 µM) 121%; (second compound 0.0316 µM, first compound 0.316 µM) 141%; (second compound 0.0316 µM, first compound 1 µM) 132%. In addition, the viability, T/C is 97.1% (second compound 0.1 µM, first compound 0.00316 µM); 108% (second compound 0.1 µM, first compound 0.01 µM); 100% (second compound 0.1 µM, first compound 0.0316 µM); 104% (second compound 0.1 µM, first compound 0.1 µM); 106% (second compound 0.1 µM, first compound 0.316 µM); 135% (second compound 0.1 µM, first compound 1 µM). In addition, the viability, T/C runs as follows: (second compound 0.316 µM, first compound 0.00316 µM) 85.5%; (second compound 0.316 µM, first compound 0.01 µM) 115%; (second compound 0.316 µM, first compound 0.0316 µM) 122%; (second compound 0.316 µM, first compound 0.1 µM) 99.8%; (second compound 0.316 µM, first compound 0.316 µM) 126%; (second compound 0.316 µM, first compound 1 µM) 126%. Further, the viability, T/C (second compound 1 µM, first compound 0.00316 µM) was 109%; the viability, T/C (second compound 1 µM, first compound 0.01 µM) was 104%; the viability, T/C (second compound 1 µM, first compound 0.0316 µM) was 121%; the viability, T/C (second compound 1 µM, first compound 0.1 µM) was 113%; the viability, T/C (second compound 1 µM, first compound 0.316 µM) was 138%; the viability, T/C (second compound 1 µM, first compound 1 µM) was 134%.

The record behind these values is PubChem BioAssay AID2060905 (Molecular Pharmacology Branch, DTP, NCI, 2025).
